Reference: patent publication US9567318B2, “Substituted pyrimidine compounds and uses thereof” (Memorial Sloan-Kettering Cancer Center, priority 2009, dated 2017)

Experiments:
MDA-MB-231 cells = assay: Cell invasion assay (Boyden chamber Matrigel); type: cell-based, human; details: 1 μM pre-treatment 24 h, 20 h migration
Experimental: FIG. 12. YK5 affects the major hallmarks of cancer: inhibits proliferation and invasiveness and arrests cancer cells in the cell cycle. (a) The indicated cancer cells were incubated with increasing concentrations of inhibitors and growth over 72 h was assessed. Y-axis values below 0% represent cell death of the starting population. Drugs were assayed in triplicate. (b) Mice (n=5) bearing MDA-MB-468 subcutaneously (s.c.) xenografted tumors that reached a volume of approximately 100-200 mm^3, were administered i.t. YK5 or vehicle as described in Methods. Tumor volume (mm^3) was estimated from caliper measurements. (c) Cells were treated for 24 h with indicated concentrations of YK5. DNA content was analyzed by propidium iodide staining and flow cytometry (left), whereas proteins by western blotting (right). (d) Hsp70 client proteins isolated by YK55-beads from SKBr3 and MDA-MB-468 extracts (500 μg) were analyzed by western blotting. […] (e) MDA-MB-231 breast cancer cells were treated for 24 h with YK5 (1 μM) and protein extracts were subjected to immunoblotting (upper) or pre-treated for 24 h with vehicle or YK5, and viable cells able to migrate through Matrigel over a 20 h period were quantified and data graphed (lower). […]
Cell Invasion Assay. […] In summary, cells were stained with tryptan blue and counted manually with a hemacytometer. […] Cells in ten fields per membrane were counted at ×100 objective.

MDA-MB-468 cells = assay: Propidium iodide staining and flow cytometry (cell cycle, hypodiploid population, TNFα); type: cell-based, human; details: YK5 1 μM, TNFα 20 ng/ml
Experimental: FIG. 12. YK5 affects the major hallmarks of cancer: inhibits proliferation and invasiveness and arrests cancer cells in the cell cycle. (a) The indicated cancer cells were incubated with increasing concentrations of inhibitors and growth over 72 h was assessed. Y-axis values below 0% represent cell death of the starting population. Drugs were assayed in triplicate. (b) Mice (n=5) bearing MDA-MB-468 subcutaneously (s.c.) xenografted tumors that reached a volume of approximately 100-200 mm^3, were administered i.t. YK5 or vehicle as described in Methods. Tumor volume (mm^3) was estimated from caliper measurements. (c) Cells were treated for 24 h with indicated concentrations of YK5. DNA content was analyzed by propidium iodide staining and flow cytometry (left), whereas proteins by western blotting (right). (d) Hsp70 client proteins isolated by YK55-beads from SKBr3 and MDA-MB-468 extracts (500 μg) were analyzed by western blotting. Control beads contain D-biotin (100 μM) attached. (e) MDA-MB-231 breast cancer cells were treated for 24 h with YK5 (1 μM) and protein extracts were subjected to immunoblotting (upper) or pre-treated for 24 h with vehicle or YK5, and viable cells able to migrate through Matrigel over a 20 h period were quantified and data graphed (lower). […]
FIG. 13. […] (a,b) Apoptotic cells were quantified by dual acridine orange/ethidium bromide staining as described in Methods. […]

[1] = system: Hsp70 species from SKBr3 cancer cell extracts; assay: Hsp70 competition assay using YK55 beads, SKBr3 extracts; type: binding, human
Experimental: FIG. 14. YK5 has a higher affinity for tumor Hsp70s and selectively kills cancer cells. (a-c) Cells were treated with the indicated concentrations of inhibitors for the times presented, and metabolically viable cells by Alamar blue uptake as described in Methods (a). Molecular markers of apoptosis (PARP and caspase-3 cleavage) were analyzed in cells treated for 24 h with indicated concentrations of inhibitors, by western blotting (b, c). Morphology of cells treated for 24 h with vehicle or the indicated inhibitors was analyzed by light microscopy (c). (d) Extracts (500 μg) were incubated overnight with beads containing D-biotin (75 μM) or the indicated concentrations of YK55 added to 50 μl streptavidin beads. HS=heat shocked. (e) SKBr3 (200 μg) and MRC-5 (400 μg) extracts and recombinant human Hsp70 (2 μg) were incubated for 3 h with the indicated concentrations with YK5, followed by precipitation of Hsp70 complexes on YK55-beads (50 μM YK55 added to 50 μl streptavidin beads). Data obtained from three independent experiments were graphed (right). Points, mean; bars, s.d.
In a second experiment, the ability of soluble YK5 to compete YK55-binding to normal and cancer cell Hsp70 species were tested (FIG. 14e). […] Interaction of YK5 was even weaker with recombinant human Hsp70 (FIG. 14e).
Hsp70 Competition Assay Using the YK55 Beads. […]

C=CC(=O)Nc1cc(N)nc(Sc2c(OC)nc(N3CCN(C)CC3)nc2OC)n1 [YK5, N-(6-amino-2-(4,6-dimethoxy-2-(4-methylpiperazin-1-yl)pyrimidin-5-ylthio)pyrimidin-4-yl)acrylamide]
invasion through Matrigel (MDA-MB-231 cells): inhibited the ability of MDA-MB-231 cells to invade through Matrigel | apoptotic effect of TNFα (MDA-MB-468 cells): increased the apoptotic effect of TNFα | concentration competing binding of YK55-beads to Hsp70 [1]: low micromolar concentrations
